# Tests used:
# [1] = In vivo toxicity in nude mice (weight, maximum tolerated oral dose); conditions: 200 mg/kg per os twice weekly over 2 months, 63 days
# Experimental: FIG. 14 presents the change in the weight of nude mice over 63 days. The mice received an administration of compound 6 (200 mg/kg) per os twice weekly over 2 months.
# Compound 6 was dissolved at 8 mg/ml in a 60 mg/ml aqueous solution of beta-cyclodextrin (vehicle).
# For the in vivo experiments, molecule 6 (8 mg/ml) was prepared in 60 mg/ml of β-cyclodextrin (Sigma #4805) dissolved in water and vortexed.
# All the animal experiments were carried out according to the recommendations of the local ethics commmittee. Nude mice (NCr-nu/nu females (Harlan Laboratories), were housed in a room with filtered air at 22° C., alternating 12 hours of day and 12 hours of night.
# The mice received compound 6 per os in doses and at intervals described in the captions to the figures. The control mice received the vehicle alone (identical volume of beta-cyclodextrin at 60 mg/ml))
# [2] = test system: bovine brain tubulin; test: In vitro tubulin polymerization test (turbidimetry at 350 nm); type: biochemical; conditions: molecules at 50 μM, calculated at t=3000 s, DMSO control = 100%
# Procedure, shortened: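 Bovine brain tubulin was assembled at 37 °C in BRB80 (80 mM K-PIPES pH 6.8, 1 mM MgCl2, 1 mM EGTA) with 1 mM GTP. The 50 μM tests used compounds at 50 μM, run in triplicate. Turbidity at 350 nm was read at t=3000 s and expressed relative to control taken as 100%.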
# [3] = test system: HeLa cells; test: Indirect immunofluorescence: effect on HeLa cells (mitotic arrest, microtubule depolymerization); type: cell-based, human; set-up: key to Effect on Hela at 25 μM / Effect on Hela at 100 μM / Effect on Hela at 50 and 100 μM / Effect on Hela at 50 μM: —: −: no activity on the cells at 25 μM (if there is an effect at high concentrations, this is specified in the table).; *: weak activity (MA and/or slight depolymerization of the MTs and/or slight inhibition of proliferation),; **: average activity (MA and/or moderate depolymerization of the MTs and/or moderate inhibition of proliferation),; ***: strong activity (MA and/or pronounced depolymerization of the MTs and/or pronounced inhibition of proliferation),; ****: very strong activity (MA and/or very pronounced depolymerization of the MTs and/or strong inhibition of proliferation)
# Procedure, shortened: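 HeLa cells exposed 24 h to compound (100 μM to 50 nM; primary series 1–10 μM), DMSO controls. PFA/glutaraldehyde-fixed cells immunostained for α-tubulin, actin (phalloidin) and DNA (Hoechst); fluorescence microscopy scored phenotypes and mitotic index, with mitotic index and/or MT depolymerization evaluated at 25 μM.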
# [4] = test system: HMEC cells; test: Proliferation of HMEC cells (GI50); type: cell-based; conditions: Homo sapiens, 120 h, 50 μM to 1 nM for 5 days
# Procedure, shortened: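 Cells seeded at 1,000/well (10% confluence) and exposed 5 days (120 h) to compound from 1 nM up to 50–100 μM. Live cells counted by Hoechst 33342 staining under fluorescence microscopy; GI50 is concentration halving proliferation versus control, mean of two triplicate experiments.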
structure (smiles),measurement,setting,value
"COc1ccc(-c2[nH]c(=O)c3cc(OC)ccc3c2[N+](=O)[O-])cc1 [Compound 6, 7-methoxy-3-(4-methoxyphenyl)-4-nitroisoquinoline-1(2H)-one]",effect on the weight of nude mice,[1],no significant effect
same,Tubulin polymerization inhibition,[2],+ ((+) signifies that the molecule induces tubulin assembly inhibition in vitro comprised between 6 and 25% of the DMSO control.)
same,Effect on Hela at 25 μM,"[3]; 25 μM, 24 hours, mitotic index and/or depolymerization of the MTs",****
same,"phenotype on microtubules and actin cytoskeleton, HeLa cells in interphase",[3]; 1 and 10 μM for 24 hours,depolymerization of the microtubules and a reorganization of the actin cytoskeleton
same,"phenotype on microtubules and actin cytoskeleton, HeLa cells in mitosis",[3]; 1 and 10 μM for 24 hours,depolymerization of the spindle microtubules and actin blebbing at the level of the cortex
same,GI50,[4],≤ 100 nM

# — US8883763B2 (Universite Joseph Fourier, priority 2010, dated 2014)
